Literature values in patent publication US20050249799A1, “Polymeric drug delivery system for hydrophobic drugs” (Spherics, Inc., priority 2004, published 2005).
Where two headings read alike, the source gives them in different places. One block for each compound: values may come before it.

Columns and labels:
[1] = not given; remark: listed apart in the source

SMILES: Nc1nc2c(ncn2COCCO)c(=O)[nH]1 [Acyclovir, 2-amino-1,9-dihydro-9-[(2-hydroxyethoxy)methyl]-6H-purin-6-one]
absolute bioavailability (200 mg dose given every 4 hours): 20%

time to peak plasma concentrations (oral): 4 to 24 h
bioavailability (tablet form): 89%
solubility in water [1]: practically insoluble
SMILES: NC(=O)N1c2ccccc2C=Cc2ccccc21 [Carbamazepine, 5H-dibenz[b,f]azepine-5-carboxamide]

half-life (in vivo): 4 to 5 h
increase in plasma concentration on doubling the dose (oral): 30-40%
time to peak plasma concentrations (oral): ≤ 2 h
SMILES: C#C[C@]1(O)CC[C@H]2[C@@H]3CCC4=Cc5oncc5C[C@]4(C)[C@H]3CC[C@@]21C [Danazol, 17a-Pregna-2,4-dien-20-yno[2,3-d]-isoxazol-17-ol]

SMILES: CCC(C)n1ncn(-c2ccc(N3CCN(c4ccc(OCC5COC(Cn6cncn6)(c6ccc(Cl)cc6Cl)O5)cc4)CC3)cc2)c1=O (centres unmarked) [itraconazole, Itraconazole]
bioavailability (oral capsule): 55%
